In patent US4520022A, “Substituted vinyl cephalosporins” (priority 1983, dated 1985):
Converted amounts (≈) assume the structure as drawn.

Tested on: B. fragilis
Assay: In vitro activity against anaerobes (MIC), B. fragilis
Format: cell-based
Settings: Bacteroides fragilis, B. fragilis A21900; β-lactamase (-); clindamycin resistant

CC1=C(C(=O)O)N2C(=O)[C@@H](NC(=O)[C@H](N)c3ccccc3)[C@H]2SC1 [Cephalexin]
MIC: 12.5 µg/mL (≈ 36 µM)
